Where two headings read alike, the source gives them in different places.
Assays:
[1] = molecular target: CYP3A4/5 (Homo sapiens, UniProt P08684); assay: Direct and time-dependent CYP inhibition, pooled human liver microsomes; assay type: in vitro ADME
Protocol: (§1) “mM^”=millimolar. CYP induction was evaluated using cultured human hepatocytes (from 3 donors) treated once daily for 3 days with RE/R concentrations to […].
(§2) The competitive inhibition of specific CYP isoforms was investigated for RVT-1201 and KAR5417 in human liver microsomes (HLM) (XT155056). Of the […] evaluated in vitro (CYP1A2, CYP2B6, CYP2C8, CYP2C9, CYP2D6, CYP3A4, CYP3A5), RVT-1201 IC50 estimates were determined for CYP2B6, CYP2C8 and CYP3A4 only. […] For each IC50 estimate, substrate concentration and Km were used to estimate RVT-1201 and KAR5417 Ki.

[2] = molecular target: T1, CYP2B6 (Homo sapiens, UniProt P20813); assay: In vitro CYP substrate assessment (victim potential); assay type: in vitro ADME
T1 sequence (P20813 1-491): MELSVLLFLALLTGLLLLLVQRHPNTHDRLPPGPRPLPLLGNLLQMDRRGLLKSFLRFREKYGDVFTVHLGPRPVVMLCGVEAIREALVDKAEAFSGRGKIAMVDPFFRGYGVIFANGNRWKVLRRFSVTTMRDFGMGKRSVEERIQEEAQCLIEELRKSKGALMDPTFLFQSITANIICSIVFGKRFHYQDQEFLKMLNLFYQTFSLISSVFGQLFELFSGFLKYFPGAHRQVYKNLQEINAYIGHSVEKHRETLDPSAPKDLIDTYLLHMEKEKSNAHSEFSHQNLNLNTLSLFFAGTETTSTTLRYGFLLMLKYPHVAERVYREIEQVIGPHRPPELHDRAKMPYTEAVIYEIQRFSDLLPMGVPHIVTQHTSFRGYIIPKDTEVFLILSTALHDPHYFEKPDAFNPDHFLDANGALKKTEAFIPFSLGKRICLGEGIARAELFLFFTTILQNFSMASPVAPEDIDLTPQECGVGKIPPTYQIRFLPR

[3] = molecular target: T2, CYP2C9 (Homo sapiens, UniProt P11712); assay: as above; assay type: in vitro ADME
T2 sequence (P11712 whole entry): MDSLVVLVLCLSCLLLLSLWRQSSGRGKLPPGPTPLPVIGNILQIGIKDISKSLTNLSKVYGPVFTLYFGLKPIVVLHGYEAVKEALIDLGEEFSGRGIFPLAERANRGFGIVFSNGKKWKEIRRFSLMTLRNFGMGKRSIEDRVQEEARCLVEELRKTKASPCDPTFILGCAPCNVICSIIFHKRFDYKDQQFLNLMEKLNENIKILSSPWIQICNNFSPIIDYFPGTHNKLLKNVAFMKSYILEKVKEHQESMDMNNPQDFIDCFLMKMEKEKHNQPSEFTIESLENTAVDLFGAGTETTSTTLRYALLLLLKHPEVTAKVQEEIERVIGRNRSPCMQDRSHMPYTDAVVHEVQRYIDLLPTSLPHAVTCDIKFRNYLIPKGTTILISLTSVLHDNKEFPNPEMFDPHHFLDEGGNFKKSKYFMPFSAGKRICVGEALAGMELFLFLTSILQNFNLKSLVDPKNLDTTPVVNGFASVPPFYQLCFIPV

[4] = molecular target: CYP2D6 (Homo sapiens, UniProt P10635); assay: as above; assay type: in vitro ADME
Sequence of CYP2D6 (P10635 whole entry): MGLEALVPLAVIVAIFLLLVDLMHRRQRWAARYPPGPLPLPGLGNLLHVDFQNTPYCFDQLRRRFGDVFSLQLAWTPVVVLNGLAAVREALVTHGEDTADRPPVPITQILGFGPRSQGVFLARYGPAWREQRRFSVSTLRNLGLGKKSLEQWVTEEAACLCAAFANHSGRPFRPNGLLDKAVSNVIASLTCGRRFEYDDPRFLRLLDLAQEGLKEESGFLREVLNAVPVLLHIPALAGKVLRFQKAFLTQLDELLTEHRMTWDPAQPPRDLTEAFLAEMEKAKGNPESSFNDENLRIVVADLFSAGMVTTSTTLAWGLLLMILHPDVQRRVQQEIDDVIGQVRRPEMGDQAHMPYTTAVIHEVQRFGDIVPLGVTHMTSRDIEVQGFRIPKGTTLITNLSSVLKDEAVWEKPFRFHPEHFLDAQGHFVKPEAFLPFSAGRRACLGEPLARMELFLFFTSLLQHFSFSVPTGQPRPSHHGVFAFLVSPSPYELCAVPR

[5] = Predicted plasma Cmax for 600 mg rodatristat ethyl BID (ELEVATE1/ELEVATE2); set-up: species or system human; conditions: for Unbound Cmax: 600 mg BID, conservative 1% free fraction; for Predicted mean maximum plasma concentration (Cmax) / Cmax: 600 mg rodatristat ethyl BID, plasma; for Cmax: read-out: Predicted mean maximum plasma concentration (Cmax)
Protocol: The potential for rodatristat ethyl or rodatristat to be perpetrators of drug-drug interactions was assessed across in vitro CYP and transporter studies (Tables 1-4). […] This analysis was performed to assess the potential for clinically meaningful DDIs as recommended in FDA Draft Guidance: “In Vitro Metabolism- and Transporter-Mediated Drug-Drug Interaction Studies Guidance for Industry”; October 2017 (FDA, 2017).
R1 and R3 values using free (non-protein bound) drug levels were calculated based on plasma protein binding (fraction bound, fb) of rodatristat ethyl (0.995) and rodatristat (0.991). The FDA Guidance is set forth In Vitro Metabolism- and Transporter-Mediated Drug-Drug Interaction Studies Guidance for Industry (2017). […] Parameters for the prediction are set forth below in Tables 5 and 6.

[6] = Clinical pharmacokinetics in healthy subjects (Studies RVT-1201-1001 and KAR5585-101); assay type: in vivo, human
Protocol: Clinical Study RVT-1201-1001 was a single and repeat dose study of RVT-1201 in healthy subjects to evaluate the pharmacokinetic profile of RVT-1201 and its active metabolite KAR5417. In Part 1 of this study, a single oral dose of 400 mg RVT-120 was administered as an oral powder in Regimen A and B, and as immediate release tablets in Regimen C, to 9 healthy male subjects. In addition, a single 1200 mg dose as immediate release tablets was administered in Regimen D.
Following oral administration in the fed state, RVT-1201 was well absorbed and peak plasma levels were achieved after a median time of 2.5 h. […] The planned clinical dose schedule of RVT-1201 in ELEVATE2 is up to 600 mg BID. […] The geometric mean apparent clearance was 900 L/h after oral administration in Regimen C of Clinical Study RVT-1201-1001. Elimination of RVT-1201 was rapid, and primarily facilitated by hydrolysis to KAR5417. Formation of KAR5417 was attributed to de-esterification of RVT-1201.
KAR5417 is rapidly formed after oral administration of RVT-1201.
Data from two clinical studies were used to verify the PBPK model (Clinical Study KAR5585-101 and Clinical Study RVT-1201-1001). Clinical Study KAR5585-101 was a randomized, double blind, placebo-controlled, Phase 1, first-in-human study to characterize the pharmacokinetics of single and multiple ascending doses of RVT-1201 in healthy subjects. RVT-1201 and KAR5417 plasma concentration data on Day 1, 7 and 14 of 400 mg BID administration in fed subjects were used to support verification of the PBPK model. In addition, multiple dose RVT-1201 and KAR5417 plasma concentration data on Day 1, 7 and 14 of 400 mg or 800 mg BID administration in fed subjects in Clinical Study RVT-1201-1001 were also used to support model verification.

[7] = molecular target: T2, CYP2C9; assay: Direct and time-dependent CYP inhibition, pooled human liver microsomes; assay type: in vitro ADME; set-up: from tissue; host or cells: pooled human liver microsomes (n=200 donors); conditions: for IC50: human liver microsomes, read-out: In vitro IC50, direct inhibition, CYP2C9
Protocol: as §1, §2

[8] = predicted @ 600 mg BID, testosterone
[9] = human, pooled human liver microsomes, 30 μM, range given across CYPs 2B6, 2C9 and 3A4/5

Sequence of CYP3A4/5 (P08684 2-503): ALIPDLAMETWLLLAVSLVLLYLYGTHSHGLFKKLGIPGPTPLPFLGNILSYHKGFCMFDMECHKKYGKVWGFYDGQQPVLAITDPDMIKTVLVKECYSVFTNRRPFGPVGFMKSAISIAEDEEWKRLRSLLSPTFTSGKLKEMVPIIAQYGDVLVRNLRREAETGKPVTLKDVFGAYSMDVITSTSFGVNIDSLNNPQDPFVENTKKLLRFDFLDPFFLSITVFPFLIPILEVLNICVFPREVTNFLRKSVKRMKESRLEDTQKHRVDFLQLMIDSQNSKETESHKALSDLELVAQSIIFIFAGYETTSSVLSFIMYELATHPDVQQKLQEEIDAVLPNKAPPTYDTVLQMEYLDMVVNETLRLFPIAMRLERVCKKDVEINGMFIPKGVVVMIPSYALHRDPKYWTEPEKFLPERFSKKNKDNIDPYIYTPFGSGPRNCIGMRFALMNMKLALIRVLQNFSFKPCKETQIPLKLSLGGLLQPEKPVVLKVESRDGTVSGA

In vitro substrate? CYP2B6 [2]	In vitro substrate? CYP2C9 [3]	In vitro substrate? CYP2D6 [4]	Unbound Cmax [5] [nM]	Predicted mean maximum plasma concentration (Cmax) [5] [ng/mL]	Cmax [5] [nM]	IC50 [7] [µM]	SMILES	Direct inhibition of CYP2C9 (in words) [7]	further results
No	No	No	2.5	149	252	> 30	CCOC(=O)[C@@H]1CC2(CCN(c3cc(O[C@H](c4ccc(Cl)cc4-c4ccccc4)C(F)(F)F)nc(N)n3)CC2)CN1 [Rodatristat ethyl, (S)-ethyl 8-(2-amino-6-((R)-1-(5-chloro-[1,1′-biphenyl]-2-yl)-2,2,2-trifluoroethoxy)pyrimidin-4-yl)-2,8-diazaspiro[4.5]decane-3-carboxylate]	Neither rodatristat ethyl nor rodatristat inhibit	IC50 ([1]; human, pooled human liver microsomes, probe midazolam (1′ hydroxylation), midazolam 1′ hydroxylation, read-out: In vitro IC50, direct inhibition, CYP3A4): 13 µM; IC50 ([1]; human, pooled human liver microsomes, probe testosterone (6β hydroxylation), testosterone 6β hydroxylation, read-out: In vitro IC50, direct inhibition, CYP3A4 (T)): 23 µM; Calculated R1 Value, CYP3A4 (T) [1, 8]: <1.02; R1gut, CYP3A4 (T) [1, 8]: R1gut = 355; half-life ([6]; human, plasma, oral, 400 mg BID dosing, read-out: Average geometric mean plasma terminal t1/2 (converted)): 5.2 h; Geometric mean apparent clearance ([6]; oral, Regimen C (400 mg single dose, fed)): 900 L/h; Median time to peak plasma levels ([6]; oral, fed state, healthy subjects): 2.5 h; Accumulation after multiple dosing ([6]; twice daily schedule, up to 600 mg BID, expected): < 1.5 fold
No	No	No	20	1130	2010	> 30	Nc1nc(O[C@H](c2ccc(Cl)cc2-c2ccccc2)C(F)(F)F)cc(N2CCC3(CC2)CN[C@H](C(=O)O)C3)n1 [Rodatristat, (S)-8-(2-amino-6-((R)-1-(5-chloro-[1,1′-biphenyl]-2-yl)-2,2,2-trifluoroeth-oxy)pyrimidin-4-yl)-2,8-diazaspiro[4.5]decane-3-carboxylic acid]	Neither rodatristat ethyl nor rodatristat inhibit	inhibition at 30 µM [1, 9]: 27 to 45%; IC50 ([1]; human, pooled human liver microsomes, probe substrate not stated, read-out: IC50, CYP3A4/5): > 30 µM; Unbound Cmax ([5]; listed as rodatristat): 20.1 nM; Cmax greater than the Cmax of RVT-1201 ([6]; Regimen C, 400 mg single dose of RVT-1201): approximately 5 fold; half-life ([6]; male, human, plasma, 400 mg, after oral RVT-1201, Regimen C, read-out: Geometric mean plasma terminal t1/2 (converted)): 12.3 h; Cmax ([6]; male, human, plasma, oral, Regimen C, 400 mg single dose of RVT-1201, read-out: Geometric mean Cmax): 517 ng/mL; Tmax ([6]; male, human, plasma, oral, Regimen C, 400 mg single dose of RVT-1201, read-out: Median Tmax): 3.5 h; inhibition at 30 µM [7, 9]: 27 to 45%

Reference: patent publication US20230074252A1, “DOSAGES AND METHODS FOR TREATING PULMONARY ARTERIAL HYPERTENSION WITH RODATRISTAT” (Altavant Sciences GmbH, priority 2020, published 2023)
